Each structure is given as a SMILES string. Where only a bound is given, the exact number is not on record here.

Results on 16 molecules are retold here after US20250145606A1 (Arcus Biosciences, Inc., priority 2023, published 2025).

Test [1] deals with PDGFRβ (Homo sapiens (Human), UniProt P09619). Nature of the test: Inhibition of PDGFRβ kinase activity (HTRF KinEASE-TK). The following applies: biochemical, HTRF KinEASE-TK. In outline:
(§1)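 Human kinases were preincubated 1 h at rt with a 22-point 1:2 compound titration, then run 120 min at rt with biotinylated TK peptide and ATP (2× mix: c-Kit 16 μM, PDGFRα 1 μM, PDGFRβ 40 μM, CSF1R 20 μM). Phosphopeptide was read by HTRF TR-FRET (665/620 nm), and IC50s came from 4-parameter fits.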

Test [2] has as its target c-Kit (Homo sapiens (Human), UniProt P10721). Nature of the test: Inhibition of c-Kit kinase activity (HTRF KinEASE-TK). The test is classed as biochemical. The following applies: biochemical, HTRF KinEASE-TK. In outline: as §1
Test [3] relates to Phospho-KIT (Y703) in M07e cells. Nature of the test: Phospho-KIT (Y703) cellular assay in M07e cells. The following applies: M-07e; Phospho-KIT (Y703), M07e cells; read-out: M07e Cell IC50. The test is classed as cell-based. As to the method: Phospho-KIT (Y703) Cellular Assay in M07e Cells
The day prior to assay, M07e cells (DSMZ, catalog #ACC 104) were serum starved. Cells were centrifuged and cell pellet resuspended in OptiMEM (Gibco, catalog #31985062) to a density of 1×10^6-2.5×10^6 cells per mL. Cells were then incubated overnight at 5% CO2 and 37° C. in an appropriately sized flask. On the day of the experiment, an 11 point, half log titration of test compound was pre-dispensed into 96-well round bottom polypropylene plates (Corning, catalog #3365). The serum starved M07e cells were centrifuged and resuspended to a cell density of 1×10^6 cells per mL with DPBS (Gibco, catalog #14190-144). Live/Dead Green Fixable viability dye (Invitrogen, catalog #L34970) was added as 1 μL/1 mL of cell suspension. Cells were then incubated in the dark at 4° C. for 30 min. Cells were washed by centrifugation and resuspension with DPBS+0.5% BSA (Gemini Bio Products, catalog #700110/100, 30% BSA solution). Cells were resuspended, separated into two equal volumes and again centrifuged. Cell pellets were resuspended with OptiMEM™ to a cell density of 1×10^6 cells per mL. Cells were then added to the appropriate compound plate at 100,000 cells per well in 100 μL and mixed. Plates were incubated at 5% CO2 and 37° C. for 50 min. Stem Cell Factor, SCF (R&D Systems, #255-SC/CF) was diluted in OptiMEM to 1 μg/mL and added to all wells as 10 μL for a final concentration of 90.9 ng/mL. Plates were incubated at 5% CO2 and 37° C. for 10 min. Incubation was stopped by addition of 110 μL 4% paraformaldehyde solution in PBS (Life Technologies, catalog #J19943.K2). Plates were incubated at rt for at least 15 min. Plates were then centrifuged and supernatant removed by flicking. Cells were washed once by resuspension in 200 μL DPBS+0.5% BSA, centrifuged, and supernatant removed by flicking. Cells were resuspended in 100 μL 1X Permeabilization buffer (Invitrogen, catalog #88882400) and plates incubated at rt for 30 min. Plates were centrifuged, supernatant removed by flicking, and cells resuspended in 50 μL primary antibody, anti-phospho-c-KIT (Tyr703) (Cell Signaling, catalog #3073), diluted to 1 μg/mL with permeabilization buffer. Plates were incubated at rt for 1 h. Plates were centrifuged, supernatant removed, and cells resuspended with 200 μL DPBS+0.5% BSA. Plates were again centrifuged, supernatant removed by flicking, and cells resuspended in 100 μL secondary antibody, goat anti-rabbit AlexaFluor647 (AF647) (Invitrogen, catalog #A21244) diluted to 1 μg/mL with DPBS+0.5% BSA. Plates were incubated at rt for 30 min. followed by centrifugation, supernatant removal, and cell resuspension with 200 μL DPBS+0.5% BSA. Cells were washed again by centrifugation, supernatant removal, and cell resuspension with 200 μL DPBS+0.5% BSA. Samples were then read by flow cytometry. The Forward: Side scatter plot was gated and that population was gated for live cells based on the Live/Dead Green staining. The geometric mean of AF647 of the live cell population was recorded. Percentage maximum activity in each test well was calculated based on DMSO (100% activity) and positive control treated cell wells (0% activity). The potencies (IC50 values) of test compounds were determined using a standard 4-parameter non-linear regression fit.

For test [4], the target named is CSF1R (Homo sapiens (Human), UniProt P07333). Nature of the test: Inhibition of CSF1R kinase activity (HTRF KinEASE-TK). To be noted: biochemical, HTRF KinEASE-TK. In outline: as §1
Test [5] addresses PDGFRα (Homo sapiens (Human), UniProt P16234). Kind of test: Inhibition of PDGFRα kinase activity (HTRF KinEASE-TK). To be noted: biochemical, HTRF KinEASE-TK. In outline: as §1
A general note: In TR-FRET formats the signal depends on donor and acceptor labels being close together.

Chain of c-Kit (P10721 26-976): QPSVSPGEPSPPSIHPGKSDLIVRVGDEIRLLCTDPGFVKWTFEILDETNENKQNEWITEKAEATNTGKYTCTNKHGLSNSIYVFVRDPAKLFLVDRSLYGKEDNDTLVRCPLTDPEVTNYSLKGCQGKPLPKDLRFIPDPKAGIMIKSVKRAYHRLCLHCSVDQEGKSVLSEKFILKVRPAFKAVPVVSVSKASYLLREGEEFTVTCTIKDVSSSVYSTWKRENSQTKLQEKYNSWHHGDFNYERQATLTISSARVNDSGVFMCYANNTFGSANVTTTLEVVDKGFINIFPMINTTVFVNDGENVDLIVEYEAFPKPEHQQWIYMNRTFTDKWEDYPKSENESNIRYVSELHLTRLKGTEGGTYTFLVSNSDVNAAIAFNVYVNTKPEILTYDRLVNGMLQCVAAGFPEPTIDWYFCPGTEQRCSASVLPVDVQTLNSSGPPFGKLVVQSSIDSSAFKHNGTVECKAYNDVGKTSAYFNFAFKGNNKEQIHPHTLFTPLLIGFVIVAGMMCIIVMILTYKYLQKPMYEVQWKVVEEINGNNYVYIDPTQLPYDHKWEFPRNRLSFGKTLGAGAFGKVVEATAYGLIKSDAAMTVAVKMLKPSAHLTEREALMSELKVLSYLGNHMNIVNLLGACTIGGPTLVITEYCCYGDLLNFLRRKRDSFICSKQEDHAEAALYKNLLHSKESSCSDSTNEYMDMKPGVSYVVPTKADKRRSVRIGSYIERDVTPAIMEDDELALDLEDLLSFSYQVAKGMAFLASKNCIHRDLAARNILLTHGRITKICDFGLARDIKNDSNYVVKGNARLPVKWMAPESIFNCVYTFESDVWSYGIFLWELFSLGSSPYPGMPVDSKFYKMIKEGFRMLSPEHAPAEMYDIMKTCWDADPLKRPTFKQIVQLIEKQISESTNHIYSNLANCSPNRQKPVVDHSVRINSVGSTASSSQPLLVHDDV
Chain of PDGFRβ (P09619 33-1106): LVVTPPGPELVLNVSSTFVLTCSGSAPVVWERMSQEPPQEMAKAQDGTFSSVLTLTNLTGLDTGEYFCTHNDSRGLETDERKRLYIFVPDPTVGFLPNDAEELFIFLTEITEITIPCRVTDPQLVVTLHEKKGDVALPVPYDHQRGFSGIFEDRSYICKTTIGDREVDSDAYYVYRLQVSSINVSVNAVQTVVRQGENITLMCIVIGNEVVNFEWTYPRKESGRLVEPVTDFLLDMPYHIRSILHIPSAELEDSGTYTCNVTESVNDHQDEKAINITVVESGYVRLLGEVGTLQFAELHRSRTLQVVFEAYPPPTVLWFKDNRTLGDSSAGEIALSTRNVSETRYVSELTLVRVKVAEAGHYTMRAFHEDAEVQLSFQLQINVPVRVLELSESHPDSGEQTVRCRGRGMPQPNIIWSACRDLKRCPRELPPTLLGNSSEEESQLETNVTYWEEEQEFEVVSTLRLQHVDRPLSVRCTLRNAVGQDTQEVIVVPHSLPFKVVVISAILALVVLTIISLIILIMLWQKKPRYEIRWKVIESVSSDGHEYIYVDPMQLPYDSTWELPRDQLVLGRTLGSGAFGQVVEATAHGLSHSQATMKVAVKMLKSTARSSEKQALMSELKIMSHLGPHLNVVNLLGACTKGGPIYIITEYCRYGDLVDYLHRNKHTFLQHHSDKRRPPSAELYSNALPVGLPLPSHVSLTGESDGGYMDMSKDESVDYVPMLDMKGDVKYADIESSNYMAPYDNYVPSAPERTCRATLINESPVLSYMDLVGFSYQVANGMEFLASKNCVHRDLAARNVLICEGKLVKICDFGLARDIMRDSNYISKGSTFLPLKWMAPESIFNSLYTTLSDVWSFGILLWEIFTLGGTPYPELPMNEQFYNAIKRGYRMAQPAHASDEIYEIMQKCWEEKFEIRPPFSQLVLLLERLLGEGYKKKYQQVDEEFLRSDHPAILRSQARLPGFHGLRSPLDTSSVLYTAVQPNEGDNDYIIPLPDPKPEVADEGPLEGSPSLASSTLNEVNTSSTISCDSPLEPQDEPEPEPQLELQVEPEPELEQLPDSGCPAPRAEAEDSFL
Chain of PDGFRα (P16234 24-1089): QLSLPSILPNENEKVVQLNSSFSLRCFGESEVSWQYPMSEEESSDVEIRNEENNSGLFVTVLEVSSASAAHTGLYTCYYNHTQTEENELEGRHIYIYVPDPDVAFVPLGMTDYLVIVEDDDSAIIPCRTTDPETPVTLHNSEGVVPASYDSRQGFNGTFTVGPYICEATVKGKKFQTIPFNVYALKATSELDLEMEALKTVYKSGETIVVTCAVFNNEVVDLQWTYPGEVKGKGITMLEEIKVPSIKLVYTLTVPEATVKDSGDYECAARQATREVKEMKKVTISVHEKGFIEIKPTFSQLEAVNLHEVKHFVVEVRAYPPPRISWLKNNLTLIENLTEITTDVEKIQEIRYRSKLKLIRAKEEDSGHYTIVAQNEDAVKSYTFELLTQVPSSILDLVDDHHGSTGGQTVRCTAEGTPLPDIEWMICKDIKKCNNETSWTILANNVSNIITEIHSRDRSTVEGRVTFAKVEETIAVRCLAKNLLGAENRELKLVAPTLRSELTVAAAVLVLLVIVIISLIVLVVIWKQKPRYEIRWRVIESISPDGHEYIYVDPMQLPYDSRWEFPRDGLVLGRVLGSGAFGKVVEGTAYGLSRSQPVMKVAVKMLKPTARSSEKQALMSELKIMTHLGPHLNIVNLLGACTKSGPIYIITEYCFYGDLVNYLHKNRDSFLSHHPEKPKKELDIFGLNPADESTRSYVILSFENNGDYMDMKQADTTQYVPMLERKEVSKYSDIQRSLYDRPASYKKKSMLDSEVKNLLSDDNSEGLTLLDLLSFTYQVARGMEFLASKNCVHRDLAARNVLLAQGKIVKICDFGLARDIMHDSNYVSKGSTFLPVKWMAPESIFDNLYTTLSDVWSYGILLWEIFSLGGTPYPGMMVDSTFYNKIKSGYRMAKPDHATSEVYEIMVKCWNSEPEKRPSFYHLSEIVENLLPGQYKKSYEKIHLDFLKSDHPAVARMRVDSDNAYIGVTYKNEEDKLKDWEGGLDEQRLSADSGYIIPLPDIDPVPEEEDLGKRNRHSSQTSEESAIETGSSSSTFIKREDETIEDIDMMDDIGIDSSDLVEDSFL
Chain of CSF1R (P07333 20-972): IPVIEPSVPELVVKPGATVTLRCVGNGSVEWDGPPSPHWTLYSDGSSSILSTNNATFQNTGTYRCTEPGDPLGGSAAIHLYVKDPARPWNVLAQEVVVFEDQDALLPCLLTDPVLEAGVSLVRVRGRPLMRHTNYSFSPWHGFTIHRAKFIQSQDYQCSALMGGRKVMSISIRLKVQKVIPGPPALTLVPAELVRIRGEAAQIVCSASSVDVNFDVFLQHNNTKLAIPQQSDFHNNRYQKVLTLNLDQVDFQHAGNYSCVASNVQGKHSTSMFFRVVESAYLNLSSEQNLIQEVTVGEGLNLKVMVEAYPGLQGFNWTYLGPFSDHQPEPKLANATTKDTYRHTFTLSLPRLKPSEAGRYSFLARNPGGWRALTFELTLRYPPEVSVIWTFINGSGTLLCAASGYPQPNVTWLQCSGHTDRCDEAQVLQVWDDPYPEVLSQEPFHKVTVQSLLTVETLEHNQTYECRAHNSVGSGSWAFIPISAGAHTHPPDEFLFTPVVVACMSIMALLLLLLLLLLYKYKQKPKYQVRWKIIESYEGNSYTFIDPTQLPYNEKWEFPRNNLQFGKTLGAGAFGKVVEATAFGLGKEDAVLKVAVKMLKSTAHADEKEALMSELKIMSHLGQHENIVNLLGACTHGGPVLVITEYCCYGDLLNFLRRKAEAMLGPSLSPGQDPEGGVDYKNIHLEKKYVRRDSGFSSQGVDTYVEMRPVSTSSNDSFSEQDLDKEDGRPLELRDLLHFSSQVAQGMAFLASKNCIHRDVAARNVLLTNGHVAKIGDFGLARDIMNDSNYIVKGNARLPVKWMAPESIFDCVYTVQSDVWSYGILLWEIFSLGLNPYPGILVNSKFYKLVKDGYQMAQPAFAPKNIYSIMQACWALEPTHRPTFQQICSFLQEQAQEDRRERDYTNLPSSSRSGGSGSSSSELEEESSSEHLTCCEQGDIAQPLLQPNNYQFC

Turning to `Cc1ncc(C(=O)Nc2cc(C(=O)Nc3ccnc(C(F)(F)F)c3)c(F)cc2C)s1` [Example 25, N-[4-Fluoro-2-methyl-5-[[2-(trifluoromethyl)pyridin-4-yl]carbamoyl]phenyl]-2-methyl-1,3-thiazole-5-carboxamide], the IC50 in test [1] is 100 to 1000 nM; in test [2] it was less than 100 nM; in test [3] it was less than 100 nM; in test [4] it was more than 1000 nM; in test [5], more than 1000 nM.
Take `Cc1ncc(C(=O)Nc2cc(C(=O)Nc3cnc(OC4CC(F)(F)C4)cn3)c(F)cc2C)s1` [Example 32, N-[5-[[5-(3,3-difluorocyclobutyl)oxypyrazin-2-yl]carbamoyl]-4-fluoro-2-methylphenyl]-2-methyl-1,3-thiazole-5-carboxamide]: the IC50 was more than 1000 nM in test [1]; less than 100 nM in test [2]; less than 100 nM in test [3]; more than 1000 nM in test [4]; more than 1000 nM in test [5].
Turning to `Cc1ncc(C(=O)Nc2cc(C(=O)Nc3ccc(OCC(F)F)cn3)c(F)cc2C)s1` [Example 36, N-[5-[[5-(2,2-difluoroethoxy)pyridin-2-yl]carbamoyl]-4-fluoro-2-methylphenyl]-2-methyl-1,3-thiazole-5-carboxamide], the IC50 in test [1] is more than 1000 nM; in test [2], less than 100 nM; in test [3], less than 100 nM; in test [4] it was more than 1000 nM; in test [5], more than 1000 nM.
Turning to `Cc1ncc(C(=O)Nc2cc(C(=O)Nc3ccc(OC(F)(F)F)cn3)c(F)cc2C)s1` [Example 39, N-[4-fluoro-2-methyl-5-[[5-(trifluoromethoxy)pyridin-2-yl]carbamoyl]phenyl]-2-methyl-1,3-thiazole-5-carboxamide], the IC50 in test [1] was more than 1000 nM; in test [2], less than 100 nM; in test [3], less than 100 nM; in test [4], more than 1000 nM; in test [5] it was more than 1000 nM.
Regarding `Cc1ncc(C(=O)Nc2cc(C(=O)Nc3ccc(OC(C)C)cn3)c(F)cc2Cl)s1` [Example 48, N-[2-chloro-4-fluoro-5-[(5-propan-2-yloxypyridin-2-yl)carbamoyl]phenyl]-2-methyl-1,3-thiazole-5-carboxamide], the IC50 is more than 1000 nM in test [1]; less than 100 nM in test [2]; less than 100 nM in test [3]; more than 1000 nM in test [4]; more than 1000 nM in test [5].
For the molecule `Cc1ncc(C(=O)Nc2cc(C(=O)Nc3ccc(OC4CC4)cn3)c(F)cc2Cl)s1` [Example 49, N-[2-chloro-5-[(5-cyclopropyloxypyridin-2-yl)carbamoyl]-4-fluorophenyl]-2-methyl-1,3-thiazole-5-carboxamide], the IC50 was more than 1000 nM in test [1]; less than 100 nM in test [2]; less than 100 nM in test [3]; more than 1000 nM in test [4]; more than 1000 nM in test [5].
For `Cc1ncc(C(=O)Nc2cc(C(=O)Nc3cc(CC4CC4)ncn3)c(F)cc2C)s1` [Example 50, N-(5-((6-(cyclopropylmethyl)pyrimidin-4-yl)carbamoyl)-4-fluoro-2-methylphenyl)-2-methylthiazole-5-carboxamide], the IC50 in test [1] was 100 to 1000 nM; in test [2], less than 100 nM; in test [3] it was less than 100 nM; in test [4] it was 100 to 1000 nM; in test [5] it was 100 to 1000 nM.
As to `Cc1ncc(C(=O)Nc2cc(C(=O)NCc3ccccc3F)c(F)cc2C)s1` [Example 51, N-(4-fluoro-5-((2-fluorobenzyl)carbamoyl)-2-methylphenyl)-2-methylthiazole-5-carboxamide], the IC50 is more than 1000 nM in test [1]; 100 to 1000 nM in test [2]; less than 100 nM in test [3]; more than 1000 nM in test [4]; more than 1000 nM in test [5].
On to `Cc1ncc(C(=O)Nc2cc(C(=O)Nc3cccc(CC(F)(F)F)n3)c(F)cc2C)s1` [Example 52, N-[4-fluoro-2-methyl-5-[[6-(2,2,2-trifluoroethyl)pyridin-2-yl]carbamoyl]phenyl]-2-methyl-1,3-thiazole-5-carboxamide], for which the IC50 was more than 1000 nM in test [1]; less than 100 nM in test [2]; less than 100 nM in test [3]; more than 1000 nM in test [4]; more than 1000 nM in test [5].
Take `Cc1ncc(C(=O)Nc2cc(C(=O)Nc3cnc(OC[C@@H]4CC4(F)F)cn3)c(F)cc2C)s1` [Example 58, N-[5-[[5-[[(1S)-2,2-difluorocyclopropyl]methoxy]pyrazin-2-yl]carbamoyl]-4-fluoro-2-methylphenyl]-2-methyl-1,3-thiazole-5-carboxamide]: the IC50 is more than 1000 nM in test [1]; less than 100 nM in test [2]; less than 100 nM in test [3]; more than 1000 nM in test [4]; more than 1000 nM in test [5].
As for `Cc1ncc(C(=O)Nc2cc(C(=O)Nc3ccn(CC4CC4)n3)c(F)cc2C)s1` [Example 70, N-[5-[[1-(cyclopropylmethyl)pyrazol-3-yl]carbamoyl]-4-fluoro-2-methylphenyl]-2-methyl-1,3-thiazole-5-carboxamide], the IC50 in test [1] is more than 1000 nM; in test [2] it was less than 100 nM; in test [3], less than 100 nM; in test [4], more than 1000 nM; in test [5] it was more than 1000 nM.
Consider `Cc1ncc(C(=O)Nc2cc(C(=O)Nc3ccc(CC(F)(F)F)nc3)c(F)cc2C)s1` [Example 98, N-[4-fluoro-2-methyl-5-[[6-(2,2,2-trifluoroethyl)pyridin-3-yl]carbamoyl]phenyl]-2-methyl-1,3-thiazole-5-carboxamide], for which the IC50 is less than 100 nM in test [2], less than 100 nM in test [3] and more than 1000 nM in test [4].
For the molecule `Nc1ncc(C(=O)Nc2cc(C(=O)Nc3ccc(CC(F)(F)F)cn3)c(F)cc2F)s1` [Example 221, 2-Amino-N-[2,4-difluoro-5-[[5-(2,2,2-trifluoroethyl)pyridin-2-yl]carbamoyl]phenyl]-1,3-thiazole-5-carboxamide], the IC50 was less than 100 nM in test [2], less than 100 nM in test [3] and 100 to 1000 nM in test [4].
Take `Cc1cc(F)c(C(=O)Nc2cncc(C(F)F)c2)cc1NC(=O)c1cnc(N)s1` [Example 246, 2-Amino-N-[5-[[5-(difluoromethyl)pyridin-3-yl]carbamoyl]-4-fluoro-2-methylphenyl]-1,3-thiazole-5-carboxamide]: the IC50 in test [2], in test [3] and in test [4] was less than 100 nM throughout.
Turning to `Cc1cc(F)c(C(=O)Nc2cncc(C(F)(F)F)c2)cc1NC(=O)c1cnc(N)s1` [Example 249, 2-Amino-N-[4-fluoro-2-methyl-5-[[5-(trifluoromethyl)pyridin-3-yl]carbamoyl]phenyl]-1,3-thiazole-5-carboxamide], the IC50 in test [2], in test [3] and in test [4] was less than 100 nM in each case.
On to `Cc1cc(F)c(C(=O)Nc2cccnc2C)cc1NC(=O)c1cnc(N)s1` [Example 250, 2-Amino-N-[4-fluoro-2-methyl-5-[(2-methylpyridin-3-yl)carbamoyl]phenyl]-1,3-thiazole-5-carboxamide], for which the IC50 in test [2] was 100 to 1000 nM; in test [3], 100 to 1000 nM; in test [4], more than 1000 nM.

Usually IC50 stands for the concentration needed to halve the response being measured.
